Data set [1] concerns cowpox virus. Briefly: microbe, parasite or virus in culture. It counts as cell-based. The following applies: read-out: Antiviral activity, IC50 Cowpox.
Data set [2] relates to vaccinia virus. Kind of data set: microbe, parasite or virus in culture. The data set is classed as cell-based. To be noted: read-out: Antiviral activity, IC50 Vaccinia.
Data set [3] relates to human cytomegalovirus (HCMV). Kind of data set: microbe, parasite or virus in culture. To be noted: read-out: Antiviral activity, IC50 HCMV. The data set is classed as cell-based.
In data set [4] the test system is KB cells.
Data set [5] can be described thus: in vitro. To be noted: human.
The mark [6] stands for this setting: Orthopoxvirus vaccinia, HFF, 72 h.
Setting [7] is: Human betaherpesvirus 5, HFF, 240 h.

This is an account of results in patent publication US9550803B2, “Method to improve antiviral activity of nucleotide analogue drugs” (priority 2011, dated 2017).

Where two headings read alike, the source gives them in different places.

Regarding `C[C@H](Cn1cnc2c(N)nc(N)nc21)OCP(=O)(O)O` [(R)-PMPDAP, reference compound], the IC50 in data set [1] is greater than 100 µM; in data set [2] it was greater than 100 µM; in data set [3], greater than 100000 nM. Moreover, in data set [4], the CC50 was greater than 100 µM.
Turning to `Nc1ncnc2c1ncn2C[C@@H](CO)OCP(=O)(O)O` [(S)-HPMPA, (S)-9-(3hydroxy-2-phosphonyl-methoxypropyl)adenine, reference compound], the IC50 in data set [1] was determined as 20 µM; in data set [2], 2.5 µM; in data set [3], 6000 nM. This compound displayed a CC50 in data set [4] greater than 100 µM.
As for `Nc1ccn(C[C@@H](CO)OCP(=O)(O)O)c(=O)n1` [(S)-HPMPC, cidofovir, reference compound], the IC50 in data set [1] (Cowpox virus, HFF, 72 h) was 25 µM; in data set [2] (setting [6]) it was 10 µM; in data set [3] (setting [7]) it was 300 nM. The CC50 in data set [5] is greater than 100 µM.
On to `Nc1ncnc2c1ncn2C[C@H]1COP(=O)(O)CO1` [(S)-cHPMPA, reference compound], for which the results for the IC50 in data set [1], in data set [2] and in data set [3] were 2.5 µM, 1 µM and 1500 nM, respectively. The CC50 in data set [4] is greater than 100 µM.
In turn, `CC(=NNC(N)=S)c1ccccn1` [Compound 3L, 2-Acetylpyridine thiosemicarbazone, reference compound] had a CC50 in data set [5] of 2 µM.
Turning to `CCCCCCCCNC(=O)[C@@H](N)Cc1ccc(OP2(=O)CO[C@@H](Cn3cnc4c(N)ncnc43)CO2)cc1` (stereo partly drawn) [Compound 8a, O-[(5S)-5-[(6-Amino-9H-purin-9-yl)methyl]-2-oxido-1,4,2-dioxaphosphinan-2-yl]-N-octyl-(L)-tyrosinamide], the IC50 in data set [1] (Cowpox virus, HFF, 72 h) was found to be 3 µM; in data set [2] (setting [6]), 1.5 µM; in data set [3] (setting [7]), 300 nM. The CC50 in data set [5] was 100 µM.
`CCCCCCCCCCCCNC(=O)[C@@H](N)Cc1ccc(OP2(=O)CO[C@@H](Cn3cnc4c(N)ncnc43)CO2)cc1` (stereo partly drawn) [Compound 8b, O-[(5S)-5-[(6-Amino-9H-purin-9-yl)methyl]-2-oxido-1,4,2-dioxaphosphinan-2-yl]-N-dodecyl-(L)-tyrosinamide]: the half-maximal inhibitory concentration (IC50) in data set [3] (setting [7]) was less than 0.001 nM. For the same compound, in data set [5], the CC50 came to 15 µM.
Consider `CCCCCCCCCCCCCCNC(=O)[C@@H](N)Cc1ccc(OP2(=O)CO[C@@H](Cn3cnc4c(N)ncnc43)CO2)cc1` (stereo partly drawn) [Compound 8c, O-[(5S)-5-[(6-Amino-9H-purin-9-yl)methyl]-2-oxido-1,4,2-dioxaphosphinan-2-yl]-N-tetradecyl-(L)-tyrosinamide], for which, in data set [3] (setting [7]), the IC50 is less than 0.001 nM. In addition, in data set [5], the CC50 was 15 µM.
Regarding `CCCCCCCCCCCCCCCCNC(=O)[C@@H](N)Cc1ccc(OP2(=O)CO[C@@H](Cn3cnc4c(N)ncnc43)CO2)cc1` (stereo partly drawn) [Compound 8d, O-[(5S)-5-[(6-Amino-9H-purin-9-yl)methyl]-2-oxido-1,4,2-dioxaphosphinan-2-yl]-N-hexadecyl-(L)-tyrosinamide], the IC50 in data set [1] (Cowpox virus, HFF, 72 h) is less than 0.1 µM; in data set [2] (setting [6]) it was 0.006 µM; in data set [3] (setting [7]), less than 0.001 nM. In data set [5], this compound came in with a CC50 of 11 µM.
As for `CCCCCCCCCCCCCCCCCCNC(=O)[C@@H](N)Cc1ccc(OP2(=O)CO[C@@H](Cn3cnc4c(N)ncnc43)CO2)cc1` (stereo partly drawn) [Compound 8e, O-[(5S)-5-[(6-Amino-9H-purin-9-yl)methyl]-2-oxido-1,4,2-dioxaphosphinan-2-yl]-N-octadecyl-(L)-tyrosinamide], the IC50 in data set [3] (setting [7]) was less than 0.001 nM. In addition, the CC50 in data set [5] amounted to 10 µM.
The like results for `CCCCCCCCCCCCCCCCNC(=O)[C@@H](N)Cc1ccc(OP2(=O)CO[C@@H](Cn3ccc(N)nc3=O)CO2)cc1` (stereo partly drawn) [Compound 8f, O-[(5S)-5-[(4-amino-2-oxopyrimidin-1(2H)-yl)methyl]-2-oxido-1,4,2-dioxaphosphinan-2-yl]-N-hexadecyl-(L)-tyrosinamide] were, in that order, less than 0.001 nM and 15 µM.
Turning to `CCCCCCCCNC(=O)[C@@H](N)Cc1ccc(OP(=O)(O)CO[C@H](CO)Cn2cnc3c(N)ncnc32)cc1` [Compound 9a, O-[([[(2S)-1-(6-Amino-9H-purin-9-yl)-3-hydroxypropan-2-yl]oxy]methyl)(hydroxy)-phosphoryl]-N-octyl-(L)-tyrosinamide], the IC50 in data set [3] (setting [7]) was less than 100 nM.
Consider `CCCCCCCCCCCCNC(=O)[C@@H](N)Cc1ccc(OP(=O)(O)CO[C@H](CO)Cn2cnc3c(N)ncnc32)cc1` [Compound 9b, O-[([[(2S)-1-(6-Amino-9H-purin-9-yl)-3-hydroxypropan-2-yl]oxy]methyl)(hydroxy)-phosphoryl]-N-dodecyl-(L)-tyrosinamide], for which the IC50 in data set [3] (setting [7]) is less than 0.001 nM. Besides, the CC50 in data set [5] came to 15 µM.
Turning to `CCCCCCCCCCCCCCNC(=O)[C@@H](N)Cc1ccc(OP(=O)(O)CO[C@H](CO)Cn2cnc3c(N)ncnc32)cc1` [Compound 9c, O-[([[(2S)-1-(6-Amino-9H-purin-9-yl)-3-hydroxypropan-2-yl]oxy]methyl)(hydroxy)-phosphoryl]-N-tetradecyl-(L)-tyrosinamide], in data set [3] (setting [7]), the IC50 is less than 0.001 nM. In addition, in data set [5], the CC50 amounted to 20 µM.
On to `CCCCCCCCCCCCCCCCNC(=O)[C@@H](N)Cc1ccc(OP(=O)(O)CO[C@H](CO)Cn2cnc3c(N)ncnc32)cc1` [Compound 9d, O-[([[(2S)-1-(6-Amino-9H-purin-9-yl)-3-hydroxypropan-2-yl]oxy]methyl)(hydroxy)-phosphoryl]-N-hexadecyl-(L)-tyrosinamide], for which the concentration for half-maximal inhibition (IC50) was less than 0.1 µM in data set [1] (Cowpox virus, HFF, 72 h); 0.003 µM in data set [2] (setting [6]); less than 0.001 nM in data set [3] (setting [7]). This compound returned a CC50 in data set [5] of 15 µM.
Consider `CCCCCCCCCCCCCCCCCCNC(=O)[C@@H](N)Cc1ccc(OP(=O)(O)CO[C@H](CO)Cn2cnc3c(N)ncnc32)cc1` [Compound 9e, O-[([[(2S)-1-(6-Amino-9H-purin-9-yl)-3-hydroxypropan-2-yl]oxy]methyl)-(hydroxy)-phosphoryl]-N-octadecyl-(L)-tyrosinamide], for which the IC50 in data set [3] (setting [7]) was less than 0.001 nM. The CC50 in data set [5] worked out at 10 µM.
`CCCCCCCCCCCCCCCCNC(=O)[C@@H](N)Cc1ccc(OP(=O)(O)CO[C@H](CO)Cn2ccc(N)nc2=O)cc1` [Compound 9f, O-[([[(2S)-1-(4-amino-2-oxopyrimidin-(2H)-yl)-3-hydroxypropan-2-yl]oxy]methyl)-(hydroxy)phosphoryl]-N-hexadecyl-(L)-tyrosinamide]: the IC50 in data set [3] was less than 0.001 nM. Also, the CC50 in data set [4] worked out at 90 µM.
As for `CCCCCCCCNC(=O)[C@@H](N)Cc1ccc(OP(=O)(O)COCCn2cnc3c(N)ncnc32)cc1` [Compound 14a, O-[{[2-(6-Amino-9H-purin-9-yl)ethoxy]methyl}(hydroxy)phosphoryl]-N-octyl-L-tyrosinamide], the concentration for half-maximal inhibition (IC50) in data set [1] (Cowpox virus, HFF, 72 h) is greater than 100 µM; in data set [2] (setting [6]), 50 µM; in data set [3] (setting [7]), 35000 nM. Besides, in data set [5], the CC50 was 100 µM.
In the case of `CCCCCCCCCCCCCCCCNC(=O)[C@@H](N)Cc1ccc(OP(=O)(O)COCCn2cnc3c(N)ncnc32)cc1` [Compound 14b, O-[{[2-(6-Amino-9H-purin-9-yl)ethoxy]methyl}(hydroxy)phosphoryl]-N-hexadecyl-L-tyrosinamide], the IC50 in data set [1] (Cowpox virus, HFF, 72 h) was 20 µM; in data set [2] (setting [6]) it was 4 µM; in data set [3] (setting [7]), 2500 nM. Also, the CC50 in data set [5] was determined as 15 µM.
On to `CCCCCCCCNC(=O)[C@@H](N)Cc1ccc(OP(=O)(O)CO[C@H](C)Cn2cnc3c(N)nc(N)nc32)cc1` [Compound 15a, O-[({[(2R)-1-(2,6-diamino-9H-purin-9-yl)propan-2-yl]oxy}methyl)(hydroxy)phosphoryl]-N-octyl-L-tyrosinamide], for which the concentration for half-maximal inhibition (IC50) in data set [1] (Cowpox virus, HFF, 72 h) was greater than 100 µM; in data set [2] (setting [6]) it was greater than 100 µM; in data set [3] (setting [7]) it was greater than 100000 nM. For the same compound, in data set [5], the CC50 is greater than 100 µM.
As for `Nc1nc(O)c2ncn(COC(CO)CO)c2n1` [DHPG, Ganciclovir, reference compound], in data set [3] (setting [7]), the IC50 worked out at 3000 nM.
With `Nc1ncnc2c1ncn2CCOCP(=O)(O)O` [PMEA, reference compound], the IC50 in data set [1] is greater than 100 µM; in data set [2], greater than 100 µM; in data set [3] it was 25000 nM. The same compound showed a CC50 in data set [4] greater than 100 µM.
